Assay results published in US9000186B2, “Ring-fused heterocyclic derivative” (Kyowa Hakko Kirin Co., Ltd., priority 2011, dated 2015).
Like-named read-outs stand apart in the source and are kept apart here.

Tests used:
[1] = system: morphine-induced pruritus mice; test: Inhibitory effect for pruritus in morphine-induced pruritus mice; type: in vivo, male ddY mice; settings: oral, dose of 30 mg/kg or less, 30 minutes before intrathecal morphine (1 nmol/5 μL); scratching counted for 30 minutes
Experimental: Morphine (1 nmol/5 μL, dissolved in physiological saline) or physiological saline was intrathecally administered between the fifth and sixth lumbar vertebrae of male ddY mice using a microsyringe fitted with a 30-gauge injection needle. Mice administered with only morphine were used as a control group, and mice administered with only physiological saline as a physiological saline-administered group.
After the morphine administration, the number of scratching behavior with the hind legs which observed immediately in the mice was measured for 30 minutes. Because mice show a rapid, continuous scratching behavior in each scratching behavior, a series of such behavior was counted as a single scratching behavior.
The test compounds were administered 30 minutes before the morphine administration. Each test compound was suspended in a 0.5% methylcellulose solution, and orally administered in 10 mL/kg volume.

[2] = target: T1, human Cav3.2 T-type Ca2+ channel (Homo sapiens, UniProt O95180); test: Inhibitory effect for intracellular calcium response via Cav3.2 T-type Ca2+ channels (FLIPR Calcium 3 Assay Kit); type: cell-based
T1 construct: expressed in transfected cells; host or cells: KJMGER8 cells (Namalwa cell-derived cell line)

[3] = human Cav3.2-expressing KJMGER8 cells (Namalwa-derived), calcium response induced by 5 mmol/L CaCl2, normalised to 3 μmol/L mibefradil, read-out: IC50 for the human Cav3.2 T-type Ca2+ current

T1 sequence (O95180 whole entry): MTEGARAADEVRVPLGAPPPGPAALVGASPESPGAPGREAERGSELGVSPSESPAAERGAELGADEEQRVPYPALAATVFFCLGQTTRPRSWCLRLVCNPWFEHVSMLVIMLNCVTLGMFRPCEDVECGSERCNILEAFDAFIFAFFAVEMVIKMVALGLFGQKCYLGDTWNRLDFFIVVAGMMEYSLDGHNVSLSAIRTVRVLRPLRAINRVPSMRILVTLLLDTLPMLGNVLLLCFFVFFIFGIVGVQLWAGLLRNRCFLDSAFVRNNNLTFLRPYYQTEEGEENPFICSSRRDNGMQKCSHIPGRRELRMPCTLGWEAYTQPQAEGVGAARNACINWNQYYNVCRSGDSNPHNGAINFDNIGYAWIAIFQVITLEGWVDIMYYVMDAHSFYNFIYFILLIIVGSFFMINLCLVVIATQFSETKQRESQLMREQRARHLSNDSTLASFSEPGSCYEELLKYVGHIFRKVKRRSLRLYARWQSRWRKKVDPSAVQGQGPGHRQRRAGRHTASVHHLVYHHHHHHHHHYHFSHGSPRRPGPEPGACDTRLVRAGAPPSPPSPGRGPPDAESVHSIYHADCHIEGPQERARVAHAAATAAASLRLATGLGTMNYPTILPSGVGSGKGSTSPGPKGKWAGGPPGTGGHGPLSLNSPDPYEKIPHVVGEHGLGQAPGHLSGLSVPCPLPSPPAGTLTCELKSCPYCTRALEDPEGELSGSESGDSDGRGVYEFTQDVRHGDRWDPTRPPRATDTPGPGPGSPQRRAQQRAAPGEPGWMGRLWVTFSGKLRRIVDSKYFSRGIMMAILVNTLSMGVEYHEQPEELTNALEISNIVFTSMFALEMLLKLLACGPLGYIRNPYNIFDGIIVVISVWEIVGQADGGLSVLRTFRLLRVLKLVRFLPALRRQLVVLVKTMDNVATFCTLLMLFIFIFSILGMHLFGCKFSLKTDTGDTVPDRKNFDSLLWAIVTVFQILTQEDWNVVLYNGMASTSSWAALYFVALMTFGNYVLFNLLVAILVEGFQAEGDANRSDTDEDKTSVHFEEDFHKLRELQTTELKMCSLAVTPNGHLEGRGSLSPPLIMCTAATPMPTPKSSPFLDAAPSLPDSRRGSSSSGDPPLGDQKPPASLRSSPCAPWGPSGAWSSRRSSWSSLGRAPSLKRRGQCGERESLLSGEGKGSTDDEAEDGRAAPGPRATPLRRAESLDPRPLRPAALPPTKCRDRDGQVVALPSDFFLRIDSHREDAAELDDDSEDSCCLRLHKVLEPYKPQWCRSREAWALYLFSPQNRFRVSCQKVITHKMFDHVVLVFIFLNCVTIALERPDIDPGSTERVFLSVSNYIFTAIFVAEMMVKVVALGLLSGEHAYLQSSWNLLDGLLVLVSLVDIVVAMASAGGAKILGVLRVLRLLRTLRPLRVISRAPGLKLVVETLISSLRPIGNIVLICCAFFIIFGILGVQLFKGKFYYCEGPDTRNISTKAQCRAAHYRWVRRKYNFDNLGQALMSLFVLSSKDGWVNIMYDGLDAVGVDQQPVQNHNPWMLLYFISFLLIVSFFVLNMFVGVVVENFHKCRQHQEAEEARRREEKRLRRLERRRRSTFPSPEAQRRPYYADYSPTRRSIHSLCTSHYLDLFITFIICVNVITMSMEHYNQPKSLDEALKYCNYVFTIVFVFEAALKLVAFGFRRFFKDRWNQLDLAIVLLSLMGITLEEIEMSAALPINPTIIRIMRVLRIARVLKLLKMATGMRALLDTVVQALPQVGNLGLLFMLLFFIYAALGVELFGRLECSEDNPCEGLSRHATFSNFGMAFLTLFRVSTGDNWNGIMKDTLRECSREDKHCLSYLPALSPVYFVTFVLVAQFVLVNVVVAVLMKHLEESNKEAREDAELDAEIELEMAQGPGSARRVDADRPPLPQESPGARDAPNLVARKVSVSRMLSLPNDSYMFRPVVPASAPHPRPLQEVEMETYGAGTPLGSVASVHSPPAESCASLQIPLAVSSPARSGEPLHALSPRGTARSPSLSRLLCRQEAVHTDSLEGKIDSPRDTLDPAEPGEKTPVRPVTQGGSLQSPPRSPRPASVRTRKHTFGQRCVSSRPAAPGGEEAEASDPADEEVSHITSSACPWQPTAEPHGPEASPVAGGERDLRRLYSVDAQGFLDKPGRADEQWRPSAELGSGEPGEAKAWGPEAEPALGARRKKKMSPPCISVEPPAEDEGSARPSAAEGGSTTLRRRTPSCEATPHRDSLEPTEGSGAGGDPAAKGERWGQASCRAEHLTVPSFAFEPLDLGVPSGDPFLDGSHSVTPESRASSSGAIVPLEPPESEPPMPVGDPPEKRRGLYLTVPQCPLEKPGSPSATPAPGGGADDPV

Row | Compound | increase of the scratching behavior observed in the morphine-induced pruritus mice [1] | IC50 [2] | IC50 [2, 3]
1 | Cc1cc(C(=O)NCC2CCOCC2)cc2nc(C(F)(F)F)c(CC3CCC(F)(F)CC3)n12 [Compound 81, 3-(4,4-Difluorocyclohexylmethyl)-5-methyl-N-{(tetrahydro-2H-pyran-4-yl)methyl}-2-trifluoromethylimidazo[1,2-a]pyridine-7-carboxamide] | inhibited | < 100 nM | 
2 | Cc1cc(C(=O)NCC2(C#N)CCOCC2)cc2nc(C(F)(F)F)c(CC3CCC(F)(F)CC3)n12 [Compound 84, N-{(4-Cyanotetrahydro-2H-pyran-4-yl)methyl}-3-(4,4-difluorocyclohexylmethyl)-5-methyl-2-trifluoromethylimidazo[1,2-a]pyridine-7-carboxamide] | inhibited | < 100 nM | 
3 | Cc1cc(C(=O)NC2CCOCC2)cc2nc(C(C)(F)F)c(CC3CCC(F)(F)CC3)n12 [Compound 96, 3-(4,4-Difluorocyclohexylmethyl)-2-(1,1-difluoroethyl)-5-methyl-N-(tetrahydro-2H-pyran-4-yl)imidazo[1,2-a]pyridine-7-carboxamide] | inhibited | < 100 nM | 
4 | Cc1cc(C(=O)NC2CCOCC2)cc2nc(C3(C)CC3)c(CC3CCC(F)(F)CC3)n12 [Compound 100, 3-(4,4-Difluorocyclohexylmethyl)-5-methyl-2-(1-methylcyclopropyl)-N-(tetrahydro-2H-pyran-4-yl)imidazo[1,2-a]pyridine-7-carboxamide] | inhibited | < 100 nM | 
5 | Cc1cc(C(=O)NC2CCOCC2)cc2nc(C(C)C)c(CC3CCC(F)(F)CC3)n12 [Compound 101, 3-(4,4-Difluorocyclohexylmethyl)-2-isopropyl-5-methyl-N-(tetrahydro-2H-pyran-4-yl)imidazo[1,2-a]pyridine-7-carboxamide] | inhibited | < 100 nM | 
6 | O=C(N[C@H]1CC[C@H](O)CC1)c1cc(Cl)n2c(CC3CCC(F)(F)CC3)c(C(F)(F)F)nc2c1 [Compound 103, 5-Chloro-3-(4,4-difluorocyclohexylmethyl)-N-(trans-4-hydroxycyclohexyl)-2-trifluoromethylimidazo[1,2-a]pyridine-7-carboxamide] | inhibited | < 100 nM | 
7 | O=C(NC1CCOCC1)c1cc(Cl)n2c(CC3CCC(F)(F)CC3)c(C(F)(F)F)nc2c1 [Compound 104, 5-Chloro-3-(4,4-difluorocyclohexylmethyl)-N-(tetrahydro-2H-pyran-4-yl)-2-trifluoromethylimidazo[1,2-a]pyridine-7-carboxamide] | inhibited | < 100 nM | 
8 | CC1(C)CC(NC(=O)c2cc(Cl)n3c(CC4CCC(F)(F)CC4)c(C(F)(F)F)nc3c2)CCO1 (stereo not drawn) [Compound 105, 5-Chloro-3-(4,4-difluorocyclohexylmethyl)-N-(2,2-dimethyltetrahydro-2H-pyran-4-yl)-2-trifluoromethylimidazo[1,2-a]pyridine-7-carboxamide] | inhibited | < 100 nM | 
9 | O=C(NC1CCOCC1)c1cc2nc(C(F)(F)F)c(CC3CCC(F)(F)CC3)n2cc1Cl [Compound 108, 6-Chloro-3-(4,4-difluorocyclohexylmethyl)-N-(tetrahydro-2H-pyran-4-yl)-2-trifluoromethylimidazo[1,2-a]pyridine-7-carboxamide] | inhibited | < 100 nM | 
10 | CC(F)(F)c1nc2cc(C(=O)NC3CCOCC3)c(Cl)cn2c1CC1CCC(F)(F)CC1 [Compound 109, 6-Chloro-3-(4,4-difluorocyclohexylmethyl)-2-(1,1-difluoroethyl)-N-(tetrahydro-2H-pyran-4-yl)imidazo[1,2-a]pyridine-7-carboxamide] | inhibited | < 100 nM | 
11 | O=C(NC1CCOCC1)c1cc2nc(C3(C(F)(F)F)CC3)c(CC3CCC(F)(F)CC3)n2cc1Cl [Compound 110, 6-Chloro-3-(4,4-difluorocyclohexylmethyl)-N-(tetrahydro-2H-pyran-4-yl)-2-{1-(trifluoromethyl)cyclopropyl}imidazo[1,2-a]pyridine-7-carboxamide] | inhibited | < 100 nM | 
12 | CC(C)c1nc2cc(C(=O)NC3CCOCC3)c(Cl)cn2c1CC1CCC(F)(F)CC1 [Compound 111, 6-Chloro-3-(4,4-difluorocyclohexylmethyl)-2-isopropyl-N-(tetrahydro-2H-pyran-4-yl)imidazo[1,2-a]pyridine-7-carboxamide] | inhibited | < 100 nM | 
13 | CC(C)(C)c1nc2cc(C(=O)NC3CCOCC3)c(Cl)cn2c1CC1CCC(F)(F)CC1 [Compound 113, 2-tert-Butyl-6-chloro-3-(4,4-difluorocyclohexylmethyl)-N-(tetrahydro-2H-pyran-4-yl)imidazo[1,2-a]pyridine-7-carboxamide] | inhibited | < 100 nM | 
14 | CC1(c2nc3cc(C(=O)NC4CCOCC4)c(Cl)cn3c2CC2CCC(F)(F)CC2)CC1 [Compound 114, 6-Chloro-3-(4,4-difluorocyclohexylmethyl)-2-(1-methylcyclopropyl)-N-(tetrahydro-2H-pyran-4-yl)imidazo[1,2-a]pyridine-7-carboxamide] | inhibited |  | < 100 nM
15 | O=C(Nc1ccn2c(CC3CCC(F)(F)CC3)c(C(F)(F)F)nc2c1)c1ccccc1 [Compound 126, N-{3-(4,4-Difluorocyclohexylmethyl)-2-trifluoromethylimidazo[1,2-a]pyridin-7-yl}benzamide] | inhibited | < 100 nM | 
16 | CC(C)c1nc2cc(C(=O)Nc3ccccc3)ccn2c1S(=O)(=O)N1CC(F)(F)C1 [Compound 133, 3-(3,3-Difluoroazetidin-1-ylsulfonyl)-2-isopropyl-N-phenylimidazo[1,2-a]pyridine-7-carboxamide] | inhibited |  | < 100 nM
17 | Cc1cc(NC(=O)c2cc3nc(C(C)C)c(S(=O)(=O)N4CC(F)(F)C4)n3cc2Cl)on1 [Compound 148, 6-Chloro-3-(3,3-difluoroazetidin-1-ylsulfonyl)-2-isopropyl-N-(3-methylisooxazol-5-yl)imidazo[1,2-a]pyridine-7-carboxamide] | inhibited |  | < 100 nM
18 | CC(C)(O)CNC(=O)c1cc(Cl)n2c(CC3CCC(F)(F)CC3)c(C(F)(F)F)nc2c1 [Compound 182, 5-Chloro-3-(4,4-difluorocyclohexylmethyl)-N-(2-hydroxy-2-methylpropyl)-2-trifluoromethylimidazo[1,2-a]pyridine-7-carboxamide] | inhibited | < 100 nM | 
